Laboratory results taken from the supplement of paper PMC10307832.

Legend:
Test in all cases: relative viability (nuclei count vs DMSO), 5 days (fraction); higher = more cells survive
[1] = compound: C1=CC2=NC=CN=C2C=C1/C=C/3\C(=O)NC(=O)S3 + C[C@]1(O)C[C@@H](c2nc(-c3ccc4ccc(-c5ccccc5)nc4c3)c3c(N)nccn32)C1 [Linsitinib] (partner 1 µM)
Method in brief: (§1)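 One day after seeding in 1536-well plates, lung cancer cell lines were dosed by pin tool. Dosing was either single-drug or a fixed anchor-drug dose plus five library-drug doses (not always all listed) in √10 steps. After 5 days, nuclei were stained in one fix-and-stain step and counted on 4× images, and relative viability is the nuclei count of treated wells over that of vehicle wells, given as the median of duplicate plates.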

[2] = compound: C1=CC2=NC=CN=C2C=C1/C=C/3\C(=O)NC(=O)S3 + C[C@@H](Oc1cc(-c2cnn(C3CCNCC3)c2)cnc1N)c1c(Cl)ccc(F)c1Cl [Crizotinib] (partner 1 µM)
Method in brief: as §1

BGJ398 + Pictilisib = compound: CCN1CCN(c2ccc(Nc3cc(N(C)C(=O)Nc4c(Cl)c(OC)cc(OC)c4Cl)ncn3)cc2)CC1 [BGJ398] + CS(=O)(=O)N1CCN(Cc2cc3nc(-c4cccc5[nH]ncc45)nc(N4CCOCC4)c3s2)CC1 [Pictilisib] (partner 1 µM)
Method in brief: as §1

[3] = compound: C1=CC2=NC=CN=C2C=C1/C=C/3\C(=O)NC(=O)S3 + COc1cc2c(Oc3ccc(NC(=O)C4(C(=O)Nc5ccc(F)cc5)CC4)cc3F)ccnc2cc1OCCCN1CCOCC1 [Foretinib] (partner 0.25 µM)
Method in brief: as §1

Cell Line	relative viability ([1]; first compound 0.02 µM)	relative viability ([1]; first compound 0.06325 µM)	relative viability ([1]; first compound 0.2 µM)	relative viability ([1]; first compound 0.6325 µM)	relative viability ([1]; first compound 2 µM)	relative viability ([2]; first compound 0.02 µM)	relative viability ([2]; first compound 0.06325 µM)	relative viability ([2]; first compound 0.2 µM)	relative viability ([2]; first compound 0.6325 µM)	relative viability ([2]; first compound 2 µM)	relative viability (BGJ398 + Pictilisib; first compound 0.01 µM)	relative viability (BGJ398 + Pictilisib; first compound 0.03162 µM)	relative viability (BGJ398 + Pictilisib; first compound 0.1 µM)	relative viability (BGJ398 + Pictilisib; first compound 0.3162 µM)	relative viability (BGJ398 + Pictilisib; first compound 1 µM)	relative viability ([3]; first compound 0.02 µM)	relative viability ([3]; first compound 0.06325 µM)	relative viability ([3]; first compound 0.2 µM)	relative viability ([3]; first compound 0.6325 µM)	relative viability ([3]; first compound 2 µM)
LC-2-ad	0.76	0.885	0.784	0.726	0.854	0.412	0.363	0.402	0.44	0.715	0.547	0.492	0.467	0.419	0.392	0.889	0.951	0.995	0.917	0.699
CAL-12T	0.679	0.844	0.953	0.881	0.839	0.572	0.802	0.901	0.661	0.683	0.423	0.441	0.532	0.409	0.342	1.07	1.05	1.09	1.01	1.15
RERF-LC-KJ	0.82	1.03	0.894	0.811	0.853	0.547	0.927	0.864	0.837	0.753	0.598	0.663	0.515	0.583	0.615	0.831	0.825	0.874	0.814	0.695
NCI-H1650						0.91	1.19	0.974	0.966	1.22	0.497	0.394	0.416	0.153	0.316	1	0.956	1.07	1.13	1.08
BEN	0.812	0.922	0.899	0.843	0.93	0.948	0.856	0.929	0.795	0.871	0.491	0.609	0.534	0.478	0.473	0.787	0.869	0.693	0.666	0.473
EMC-BAC-2	0.765	0.906	0.822	0.808	0.869	0.733	0.767	0.76	0.661	0.763	0.503	0.561	0.513	0.476	0.465	1.04	1.07	1.05	0.903	0.923
LU99A	0.597	0.559	0.561	0.5	0.475	0.613	0.597	0.564	0.415	0.431	0.281	0.314	0.302	0.307	0.261	0.727	0.743	0.792	0.822	0.614
ABC-1	0.76	0.761	0.758	1.01	0.804	1.15	1.05	1.21	0.91	1.09	0.63	0.721	0.722	0.693	0.916	0.93	1.24	0.875	1.27	0.999
NCI-H2170						1.14	1.22	1.2	1.16	1.34	0.348	0.279	0.311	0.287	0.288	0.962	1.12	1.05	1.01	1.02
NCI-H1299	0.841	1.1	0.985	0.919	0.927	0.955	1.03	0.932	0.89	0.986	0.742	0.807	0.847	0.827	0.965	1.01	1.11	1.11	1.09	1.15
NCI-H2342																0.891	0.93	1.02	0.953	0.891
NCI-H1792	0.519	0.309	0.557	0.456	0.593	0.936	0.872	1.02	0.792	0.668	0.229	0.32	0.26	0.238	0.138					
ChaGo-K-1						1.02	0.613	1.12	1.07	1.02	0.802	0.702	0.561	0.608	0.314	0.83	0.673	0.922	0.844	0.95
HCC-44	0.691	0.628	0.675	0.607	0.674	0.721	0.808	0.807	0.836	0.575	0.544	0.671	0.682	0.602	0.401					
NCI-H1793	0.785	0.99	0.747	0.919	0.679						0.296		0.265	0.203	0.196	0.633	0.601	0.721	0.634	0.642
NCI-H1395	1.37	1.28	1.25	0.939	1.14						0.664	0.674	0.568	0.357	0.364	1.04	1.03	1	0.871	1.03
SW 900																0.703	0.823	0.77	1.06	0.797
